# According to patent publication US10479780B2, “Aminopyrazole derivatives” (Chugai Seiyaku Kabushiki Kaisha, priority 2015, dated 2019):
# pIC50: −log10 of the molar value.
# Tests used:
# Format in all cases: biochemical
# [1] = target: T1, human Yes1 enzyme (Homo sapiens, UniProt P07947); experiment: Yes1 enzyme inhibitory activity (time-resolved fluorometry, biotinylated peptide phosphorylation); conditions: biotinylated peptide phosphorylation, read-out: YES_IC50
# T1 construct: made in house
# Procedure, shortened: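 Inhibition was expressed against a compound-free control to give IC50, using TR-FRET read-out (Eu-cryptate anti-pTyr antibody, streptavidin-XL665).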
# [2] = target: T2, human Src enzyme (Homo sapiens, UniProt P12931); experiment: Src enzyme inhibitory activity (time-resolved fluorometry, biotinylated peptide phosphorylation); conditions: biotinylated peptide phosphorylation, read-out: SRC_IC50
# T2 construct: purchased Carna Biosciences, Inc. 08-173
# Procedure, shortened: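 Compounds were tested for blocking tyrosine phosphorylation of a biotinylated peptide substrate by recombinant human Src. Phosphorylated product was quantified by time-resolved fluorometry using europium cryptate and XL665 conjugates, and IC50 was calculated against the compound-free control.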
# [3] = target: T3, human Lck enzyme (Homo sapiens, UniProt P06239); experiment: Lck enzyme inhibitory activity (time-resolved fluorometry, biotinylated peptide phosphorylation); conditions: biotinylated peptide phosphorylation, read-out: LCK_IC50
# T3 construct: purchased Carna Biosciences, Inc. 08-170
# Procedure, shortened: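 Readout pairs a europium cryptate-labelled anti-phosphotyrosine antibody with XL665-streptavidin, measured by time-resolved fluorescence. IC50 derived from percent inhibition against untreated controls.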
# T2 sequence (P12931 whole entry): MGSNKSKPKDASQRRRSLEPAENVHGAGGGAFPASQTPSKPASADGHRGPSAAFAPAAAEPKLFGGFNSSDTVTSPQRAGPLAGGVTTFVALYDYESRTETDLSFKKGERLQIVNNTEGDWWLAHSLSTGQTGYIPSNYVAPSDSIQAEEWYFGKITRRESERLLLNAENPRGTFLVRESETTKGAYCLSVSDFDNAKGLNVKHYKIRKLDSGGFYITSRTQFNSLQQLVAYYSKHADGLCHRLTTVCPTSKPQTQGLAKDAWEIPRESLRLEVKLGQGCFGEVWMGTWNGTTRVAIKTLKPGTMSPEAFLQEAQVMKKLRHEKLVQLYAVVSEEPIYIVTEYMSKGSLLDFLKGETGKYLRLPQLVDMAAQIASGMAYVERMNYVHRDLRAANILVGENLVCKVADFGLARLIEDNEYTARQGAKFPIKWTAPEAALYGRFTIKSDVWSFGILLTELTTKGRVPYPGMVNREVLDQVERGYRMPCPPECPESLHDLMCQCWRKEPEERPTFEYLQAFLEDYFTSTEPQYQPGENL
# T3 sequence (P06239 whole entry): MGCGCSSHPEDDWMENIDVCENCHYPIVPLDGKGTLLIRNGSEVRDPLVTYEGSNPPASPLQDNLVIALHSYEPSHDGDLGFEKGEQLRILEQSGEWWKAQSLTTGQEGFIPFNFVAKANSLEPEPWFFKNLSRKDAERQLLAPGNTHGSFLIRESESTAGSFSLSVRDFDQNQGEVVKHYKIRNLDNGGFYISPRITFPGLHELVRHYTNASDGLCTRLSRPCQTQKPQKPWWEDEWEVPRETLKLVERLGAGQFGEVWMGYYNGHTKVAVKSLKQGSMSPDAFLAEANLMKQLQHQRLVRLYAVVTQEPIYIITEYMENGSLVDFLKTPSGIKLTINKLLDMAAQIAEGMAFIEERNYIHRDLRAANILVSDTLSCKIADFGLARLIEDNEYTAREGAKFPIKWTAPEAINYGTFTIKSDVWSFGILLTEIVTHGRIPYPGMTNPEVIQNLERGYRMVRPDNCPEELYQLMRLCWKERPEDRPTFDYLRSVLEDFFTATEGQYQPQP
# T1 sequence (P07947 whole entry): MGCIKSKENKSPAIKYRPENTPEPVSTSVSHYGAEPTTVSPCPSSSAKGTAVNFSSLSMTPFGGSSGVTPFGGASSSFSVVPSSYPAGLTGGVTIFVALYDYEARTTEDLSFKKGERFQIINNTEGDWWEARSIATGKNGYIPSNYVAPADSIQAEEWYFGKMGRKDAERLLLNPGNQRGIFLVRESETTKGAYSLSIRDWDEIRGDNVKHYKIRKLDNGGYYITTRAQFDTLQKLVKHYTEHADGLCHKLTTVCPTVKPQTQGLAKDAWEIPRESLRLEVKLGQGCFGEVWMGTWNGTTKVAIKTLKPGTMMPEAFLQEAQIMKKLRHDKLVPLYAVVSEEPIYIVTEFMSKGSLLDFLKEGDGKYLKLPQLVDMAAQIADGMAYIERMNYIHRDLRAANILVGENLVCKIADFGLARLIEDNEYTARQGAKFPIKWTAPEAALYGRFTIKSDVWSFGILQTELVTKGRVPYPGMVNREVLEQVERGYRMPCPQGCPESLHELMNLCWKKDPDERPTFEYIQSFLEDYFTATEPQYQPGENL
Structure (SMILES),pIC50 [1],pIC50 [2],pIC50 [3]
"Cc1cc2cc(C(=O)c3cnn(-c4ccc(Oc5ccccc5F)cc4C)c3N)[nH]c2cc1NS(=O)(=O)c1cccc(C#N)n1 [Example 5-1-535, N-[2-[5-amino-1-[4-(2-fluorophenoxy)-2-methylphenyl]pyrazole-4-carbonyl]-5-methyl-1H-indol-6-yl]-6-cyanopyridine-2-sulfonamide]",8.39,6.41,7.11
"Cc1cc(Oc2ccccc2F)ccc1-n1ncc(C(=O)c2cc3cc(F)c(NS(=O)(=O)c4cccc(C#N)n4)cc3[nH]2)c1N [Example 5-1-537, N-[2-[5-amino-1-[4-(2-fluorophenoxy)-2-methylphenyl]pyrazole-4-carbonyl]-5-fluoro-1H-indol-6-yl]-6-cyanopyridine-2-sulfonamide]",8.52,6.49,7.24
"Cc1cc2cc(C(=O)c3cnn(-c4ccc(Oc5ccccc5F)cc4C)c3N)[nH]c2cc1NS(=O)(=O)c1cncc(Cl)c1 [Example 5-1-540, N-[2-[5-amino-1-[4-(2-fluorophenoxy)-2-methylphenyl]pyrazole-4-carbonyl]-5-methyl-1H-indol-6-yl]-5-chloropyridine-3-sulfonamide]",8.46,6.46,7.02
"Cc1cc2cc(C(=O)c3cnn(-c4cnc(Oc5c(F)cccc5F)cc4C)c3N)[nH]c2cc1NS(=O)(=O)c1cncc(Cl)c1 [Example 5-1-541, N-[2-[5-amino-1-[6-(2,6-difluorophenoxy)-4-methylpyridin-3-yl]pyrazole-4-carbonyl]-5-methyl-1H-indol-6-yl]-5-chloropyridine-3-sulfonamide]",7.92,6.18,6.55
"Cc1cc(Oc2ccccc2F)ccc1-n1ncc(C(=O)c2cc3cc(F)c(NS(=O)(=O)c4cncc(Cl)c4)cc3[nH]2)c1N [Example 5-1-542, N-[2-[5-amino-1-[4-(2-fluorophenoxy)-2-methylphenyl]pyrazole-4-carbonyl]-5-fluoro-1H-indol-6-yl]-5-chloropyridine-3-sulfonamide]",8.44,6.37,6.74
"Cc1cc(Oc2ccccc2F)ncc1-n1ncc(C(=O)c2cc3cc(F)c(NS(=O)(=O)c4cncc(Cl)c4)cc3[nH]2)c1N [Example 5-1-544, N-[2-[5-amino-1-[6-(2-fluorophenoxy)-4-methylpyridin-3-yl]pyrazole-4-carbonyl]-5-fluoro-1H-indol-6-yl]-5-chloropyridine-3-sulfonamide]",8.08,6.17,6.48
"Cc1cc2cc(C(=O)c3cnn(-c4ccc(Oc5ccccc5F)cc4C)c3N)[nH]c2cc1NS(=O)(=O)c1cncc(F)c1 [Example 5-1-545, N-[2-[5-amino-1-[4-(2-fluorophenoxy)-2-methylphenyl]pyrazole-4-carbonyl]-5-methyl-1H-indol-6-yl]-5-fluoropyridine-3-sulfonamide]",8.51,6.82,7.66
"Cc1cc(Oc2ccccc2F)ccc1-n1ncc(C(=O)c2cc3cc(F)c(NS(=O)(=O)c4cncc(F)c4)cc3[nH]2)c1N [Example 5-1-547, N-[2-[5-amino-1-[4-(2-fluorophenoxy)-2-methylphenyl]pyrazole-4-carbonyl]-5-fluoro-1H-indol-6-yl]-5-fluoropyridine-3-sulfonamide]",8.54,6.46,7.52
"Cc1cc(Oc2ccccc2F)ncc1-n1ncc(C(=O)c2cc3cc(F)c(NS(=O)(=O)c4cncc(F)c4)cc3[nH]2)c1N [Example 5-1-549, N-[2-[5-amino-1-[6-(2-fluorophenoxy)-4-methylpyridin-3-yl]pyrazole-4-carbonyl]-5-fluoro-1H-indol-6-yl]-5-fluoropyridine-3-sulfonamide]",8.11,6.13,7.10
"Cc1cc2cc(C(=O)c3cnn(-c4ccc(Oc5ccccc5F)cc4C)c3N)[nH]c2cc1NS(=O)(=O)c1cccc(F)c1 [Example 5-1-550, N-[2-[5-amino-1-[4-(2-fluorophenoxy)-2-methylphenyl]pyrazole-4-carbonyl]-5-methyl-1H-indol-6-yl]-3-fluorobenzenesulfonamide]",8.29,6.31,7.14
"Cc1cc(Oc2ccccc2F)ccc1-n1ncc(C(=O)c2cc3cc(F)c(NS(=O)(=O)c4cccc(F)c4)cc3[nH]2)c1N [Example 5-1-552, N-[2-[5-amino-1-[4-(2-fluorophenoxy)-2-methylphenyl]pyrazole-4-carbonyl]-5-fluoro-1H-indol-6-yl]-3-fluorobenzenesulfonamide]",8.27,6.08,6.89

# Further lines, results first:
pIC50 [1],pIC50 [2],pIC50 [3],Structure (SMILES)
8.80,6.54,7.42,"Cc1cccc(S(=O)(=O)Nc2cc3[nH]c(C(=O)c4cnn(-c5ccc(Oc6ccccc6F)cc5C)c4N)cc3cc2F)n1 [Example 5-1-532, N-[2-[5-amino-1-[4-(2-fluorophenoxy)-2-methylphenyl]pyrazole-4-carbonyl]-5-fluoro-1H-indol-6-yl]-6-methylpyridine-2-sulfonamide]"
8.33,6.29,6.92,"Cc1cccc(S(=O)(=O)Nc2cc3[nH]c(C(=O)c4cnn(-c5cnc(Oc6c(F)cccc6F)cc5C)c4N)cc3cc2F)n1 [Example 5-1-533, N-[2-[5-amino-1-[6-(2,6-difluorophenoxy)-4-methylpyridin-3-yl]pyrazole-4-carbonyl]-5-fluoro-1H-indol-6-yl]-6-methylpyridine-2-sulfonamide]"
8.29,6.19,6.77,"Cc1cccc(S(=O)(=O)Nc2cc3[nH]c(C(=O)c4cnn(-c5cnc(Oc6ccccc6F)cc5C)c4N)cc3cc2F)n1 [Example 5-1-534, N-[2-[5-amino-1-[6-(2-fluorophenoxy)-4-methylpyridin-3-yl]pyrazole-4-carbonyl]-5-fluoro-1H-indol-6-yl]-6-methylpyridine-2-sulfonamide]"
8.04,6.25,7.04,"Cc1cc2cc(C(=O)c3cnn(-c4cnc(Oc5c(F)cccc5F)cc4C)c3N)[nH]c2cc1NS(=O)(=O)c1cccc(C#N)n1 [Example 5-1-536, N-[2-[5-amino-1-[6-(2,6-difluorophenoxy)-4-methylpyridin-3-yl]pyrazole-4-carbonyl]-5-methyl-1H-indol-6-yl]-6-cyanopyridine-2-sulfonamide]"
8.02,6.17,6.85,"Cc1cc(Oc2c(F)cccc2F)ncc1-n1ncc(C(=O)c2cc3cc(F)c(NS(=O)(=O)c4cccc(C#N)n4)cc3[nH]2)c1N [Example 5-1-538, N-[2-[5-amino-1-[6-(2,6-difluorophenoxy)-4-methylpyridin-3-yl]pyrazole-4-carbonyl]-5-fluoro-1H-indol-6-yl]-6-cyanopyridine-2-sulfonamide]"
7.96,6.10,6.66,"Cc1cc(Oc2ccccc2F)ncc1-n1ncc(C(=O)c2cc3cc(F)c(NS(=O)(=O)c4cccc(C#N)n4)cc3[nH]2)c1N [Example 5-1-539, N-[2-[5-amino-1-[6-(2-fluorophenoxy)-4-methylpyridin-3-yl]pyrazole-4-carbonyl]-5-fluoro-1H-indol-6-yl]-6-cyanopyridine-2-sulfonamide]"
8.01,6.19,6.44,"Cc1cc(Oc2c(F)cccc2F)ncc1-n1ncc(C(=O)c2cc3cc(F)c(NS(=O)(=O)c4cncc(Cl)c4)cc3[nH]2)c1N [Example 5-1-543, N-[2-[5-amino-1-[6-(2,6-difluorophenoxy)-4-methylpyridin-3-yl]pyrazole-4-carbonyl]-5-fluoro-1H-indol-6-yl]-5-chloropyridine-3-sulfonamide]"
8.21,6.17,7.11,"Cc1cc2cc(C(=O)c3cnn(-c4cnc(Oc5c(F)cccc5F)cc4C)c3N)[nH]c2cc1NS(=O)(=O)c1cncc(F)c1 [Example 5-1-546, N-[2-[5-amino-1-[6-(2,6-difluorophenoxy)-4-methylpyridin-3-yl]pyrazole-4-carbonyl]-5-methyl-1H-indol-6-yl]-5-fluoropyridine-3-sulfonamide]"
8.12,6.19,7.11,"Cc1cc(Oc2c(F)cccc2F)ncc1-n1ncc(C(=O)c2cc3cc(F)c(NS(=O)(=O)c4cncc(F)c4)cc3[nH]2)c1N [Example 5-1-548, N-[2-[5-amino-1-[6-(2,6-difluorophenoxy)-4-methylpyridin-3-yl]pyrazole-4-carbonyl]-5-fluoro-1H-indol-6-yl]-5-fluoropyridine-3-sulfonamide]"
7.72,6.01,6.62,"Cc1cc2cc(C(=O)c3cnn(-c4cnc(Oc5c(F)cccc5F)cc4C)c3N)[nH]c2cc1NS(=O)(=O)c1cccc(F)c1 [Example 5-1-551, N-[2-[5-amino-1-[6-(2,6-difluorophenoxy)-4-methylpyridin-3-yl]pyrazole-4-carbonyl]-5-methyl-1H-indol-6-yl]-3-fluorobenzenesulfonamide]"
7.77,5.89,6.43,"Cc1cc(Oc2c(F)cccc2F)ncc1-n1ncc(C(=O)c2cc3cc(F)c(NS(=O)(=O)c4cccc(F)c4)cc3[nH]2)c1N [Example 5-1-553, N-[2-[5-amino-1-[6-(2,6-difluorophenoxy)-4-methylpyridin-3-yl]pyrazole-4-carbonyl]-5-fluoro-1H-indol-6-yl]-3-fluorobenzenesulfonamide]"
